Test results from patent US20050048462A1, “Markers and screens” (priority 2001, published 2005).

Columns and labels:
Format in all cases: cell-based
[1] = tested on: GFP-tagged gelsolin in hippocampal neurons; assay: Gelsolin accumulation in dendritic spines, receptor subtype specificity
Experimental: Imaging was performed at 37° C. in Tyrode's solution pH 7.3, with GFP-optimized filters (Chroma Technologies, Brattleboro, Vt.) and a MicroMax cooled CCD camera (Princeton Instruments, Trenton, N.J.) controlled by Metamorph software (Universal Imaging corporation, West Chester, Pa.). Cells were stimulated by addition of glutamate or NMDA (5 to 10 μM) for up to 30 minutes. In experiments where specific receptor subtypes were blocked, cells were preincubated for 15 minutes with corresponding antagonists.
In these experiments only 2.5 μM glutamate was used.

[2] = tested on: cultured hippocampal neurons; conditions: glutamate 100 microM for 30 min
Text: This is relevant to stroke and epilepsy where hyperstimulation of receptors by released glutamate causes neuronal damage. Thus it appears that profilin II tagging occurs even after events that ultimately lead to apoptosis have been set in motion. In toxicity models, profilin II targeting could thus act as a marker for potentially damaged cells at times before cell death occurs.

[3] = tested on: hippocampal neurons expressing unmodified GFP; assay: Distribution of unmodified GFP in dendrites after glutamate (control construct); conditions: 10 μM glutamate
Experimental: (§1) To test this hypothesis we exposed hippocampal neurons expressing GFP-tagged profilin II or profilin I or unmodified GFP to 10 μM glutamate (FIG. 2). […] Glutamate treatment also produced a weaker shift of GFP tagged profilin I into spines (FIG. 2D) which, however, never approached the high levels seen for profilin II.

[4] = tested on: hippocampal neurons expressing GFP-tagged profilin I; assay: Profilin I-GFP redistribution to spines after glutamate; conditions: 10 μM glutamate; compared with profilin II
Experimental: as §1

[5] = treated with agonists for specific receptor subtypes
[6] = treated with glutamate (2.5 μM) while blocking specific receptor subtypes

Row | SMILES | Accumulation (+) of gelsolin, number of cells [1, 5] | No change (−) of gelsolin, number of cells [1, 5] | Accumulation (+) of gelsolin, number of cells [1, 6] | No change (−) of gelsolin, number of cells [1, 6] | also measured
1 | CN[C@H](CC(=O)O)C(=O)O [NMDA, N-methyl-D-aspartate] | 11 | 16 |  |  | 
2 | NS(=O)(=O)c1cccc2c1c([N+](=O)[O-])cc1[nH]c(=O)c(=O)[nH]c12 [NBQX, 1,2,3,4-Tetrahydro-6-nitro-2,3-dioxo-benzo[f]quinoxaline-7-sulfonamide] |  |  | 7 | 6 | 
3 | N[C@H](CCCP(=O)(O)O)C(=O)O [APV, D(−)-2-amino-5-phosphonopentanoic acid] |  |  | 1 | 14 | 
4 | CC(N)(C(=O)O)c1ccc(C(=O)O)cc1 (racemic) [MCPG, (R, S)-[…]-methyl-4-carboxyphenylglycine] |  |  | 3 | 8 | 
5 | N[C@@H](CCC(=O)O)C(=O)O [glutamate] |  |  |  |  | Profilin II-GFP targeting despite degenerative changes (in words) [2]: still targeted to punctate sites within dendrites; Time to excitotoxic changes (loss of normal morphology, swelling of dendrites) [2]: ≤ 2 min; Distribution of unmodified GFP (in words) [3]: did not change the distribution; Number of cells in category − ([3]; GFP construct): 7; Shift of GFP tagged profilin I into spines (in words) [4]: weaker shift
6 | N[C@H](C(=O)O)c1cc(O)cc(O)c1 [DHPG, (S)-3,5-dihydroxyphenylglycine] | 4 | 7 |  |  | 
7 | Cc1onc(O)c1CC(N)C(=O)O (centres unmarked) [AMPA, amino-3-hydroxy-5-methyl-4-isoxazolepropionic acid] | 0 | 10 |  |  | 
